The test system of data set [1] is HepG2. Kind of data set: Compound concentration required to inhibit 50% of extracellular replicating HBV (Hepatitis B virus) virion in human hepatoma cell line 2.2.15. It is filed as functional, cell-based.
A short description of data set [2]: Compound concentration that cause 50% cytotoxicity was determined by neutral red uptake in 2.2.15 Cells. The class given is cell-based, HepG2 2.2.15. Particulars: human.
Data set [3] concerns HepG2. Kind of data set: Compound concentration required to inhibit 90% of extracellular replicating HBV (Hepatitis B virus) virion in human hepatoma cell line 2.2.15. The class given is functional.
For data set [4], the system named is MT4. The data set is described as follows: Compound was evaluated for the inhibition of replication of HIV-1 in MT-4 (human T helper) cells up to 300 uM; Not active. The class given is functional, cell-based.
Data set [5] in a line: Selectivity index (SI) is the ratio of CC50/EC90 for HBV virion. The class given is functional.
The subject of data set [6] is HepG2. Kind of data set: Compound concentration required to inhibit 50% of intracellular replicating HBV (Hepatitis B virus) RI in human hepatoma cell line 2.2.15. It is filed as functional, cell-based.
The test system of data set [7] is HepG2. The data set is described as follows: Compound concentration required to inhibit 90% of intracellular replicating HBV (Hepatitis B virus) RI in human hepatoma cell line 2.2.15. The class given is functional.
Data set [8] is described as follows: Selectivity index (SI) is the ratio of CC50/EC90 for HBV RI. It is filed as functional.
In data set [9] the test system is MT4. Kind of data set: Compound was evaluated for the inhibition of replication of HIV-1 in MT-4 (human T helper) cells up to 300 uM; not active. It is filed as functional, cell-based.

Experimental findings from ChEMBL document CHEMBL1129827, “Discovery of imidazo[1,2-c]pyrimidin-5(6H)-one heterosubstituted nucleoside analogues with potent activity against human hepatitis B virus in vitro” (Bioorg Med Chem Lett, 1997) are described below.

The source made the active and inactive calls. No cut-off for these calls is given here.

On to `CCOC(=O)c1cn2c(=O)n(C3CSC(CO)O3)ccc2n1` (stereo not given), for which the EC50 (commonly the midpoint of the concentration-response curve) in the data set on HepG2 [1] was over 90 µM. Further, the CC50 (in general, the concentration at which the toxic effect on the cells reaches its halfway point) in data set [2] was over 90 µM. In addition, in the data set on HepG2 [3], the EC90 (usually the concentration at which the effect reaches the 90% level) is over 90 µM.
Consider `O=c1n([C@H]2CO[C@H](CO)O2)ccc2nc(-c3ccc([N+](=O)[O-])cc3)cn12`, for which the result in the data set with MT4 [4] was inactive. In addition, the SI in data set [5] was found to be 5.7. This compound also came in with an EC50 in the data set with HepG2 [1] of 12.5 µM. The compound also had a CC50 in data set [2] of 517 µM. In the data set on HepG2 [3], the EC90 came to 108 µM.
Take `O=c1n(C2COC(CO)O2)ccc2nc(-c3ccc(F)cc3)cn12` (stereo not given): the SI in data set [5] amounted to 34. This compound registered a 50% effective concentration (EC50) in the data set on HepG2 [1] of 4.2 µM. The compound also came in with a 50% cytotoxic concentration (CC50) in [2] of 850 µM. The concentration for an effect of 90% (EC90) in the data set on HepG2 [3] was determined as 25.2 µM.
Take `O=c1n([C@H]2CO[C@@H](CO)O2)cc(F)c2nc(CO)cn12`: the EC50 amounted to 29.1 µM in the data set with HepG2 [6] and 15.1 µM in the data set with HepG2 [1]. In addition, the figures for the EC90 in the data set with HepG2 [7] and with HepG2 [3] were 66.6 µM and 33.3 µM, respectively. In addition, the SI in data set [5] was found to be 36; in [8], 16. The same compound registered a CC50 in [2] of 1060 µM.
In the case of `O=c1n([C@H]2CO[C@@H](CO)O2)cc(F)c2nc(-c3ccc([N+](=O)[O-])cc3)cn12`, the values for the EC50 in the data set on HepG2 [6] and with HepG2 [1] were 7.7 µM and 1.9 µM, respectively. In addition, the values for the EC90 in the data set with HepG2 [7] and with HepG2 [3] were 13.6 µM and 5.9 µM, respectively. In addition, the SI in data set [5] amounted to 180; in data set [8], 103. Moreover, in data set [2], the midpoint of cytotoxicity, the CC50, lay at 1390 µM.
As for `O=c1n(C2CSC(CO)O2)ccc2nc(CO)cn12` (stereo not given), the SI in data set [5] was found to be 1.7. For the same compound, in the data set with MT4 [9], the result was inactive. This compound showed an EC50 with HepG2 [1] of 77.7 µM. Moreover, in [2], half-maximal cytotoxicity (CC50) was put at 456 µM. In the data set on HepG2 [3], this compound returned a concentration for an effect of 90% (EC90) of 276 µM.
As for `O=c1n(C2COC(CO)O2)ccc2nc(CO)cn12` (stereo not given), in [5], the SI turned out to be 59. Further, in the data set with HepG2 [1], the EC50 turned out to be 2 µM. In addition, in data set [2], the cytotoxic concentration (CC50) was 618 µM. The compound further displayed an EC90 in the data set with HepG2 [3] of 10.5 µM.
In the case of `O=c1n([C@H]2CO[C@H](CO)O2)cc(F)c2nc(CO)cn12`, the EC50 with HepG2 [1] was over 105 µM. The midpoint of cytotoxicity in [2], the CC50, lay at 1390 µM. This compound came in with a 90% effect concentration (EC90) in the data set with HepG2 [3] of over 105 µM.
`O=c1n(C2CSC(CO)O2)ccc2nc(-c3ccc([N+](=O)[O-])cc3)cn12` (stereo not given): in the data set on MT4 [4], the result was inactive. The SI in data set [5] is over 5.6. In the data set with HepG2 [1], this compound had an EC50 of 4.8 µM. This compound registered a CC50 in data set [2] of over 26.7 µM.
As for `O=c1n([C@H]2CO[C@H](CO)O2)cc(F)c2nc(-c3ccc([N+](=O)[O-])cc3)cn12`, the result in the data set on MT4 [4] was inactive. The values for the EC50 in the data set with HepG2 [6] and in the data set with HepG2 [1] were 12.8 µM and 3.7 µM, respectively. The EC90 in the data set with HepG2 [7] was 25 µM; in the data set with HepG2 [3], 8.8 µM. Moreover, the values for the SI in data set [5] and in data set [8] were 46 and 24, respectively. The compound also had a CC50 in [2] of 587 µM.
For `O=c1n([C@H]2CO[C@@H](CO)O2)ccc2nc(-c3ccc([N+](=O)[O-])cc3)cn12`, the SI in data set [5] came out at 45. In the data set with HepG2 [1], the EC50 was determined as 2.3 µM. For the same compound, the midpoint of cytotoxicity in data set [2], the CC50, lay at 486 µM. In addition, the EC90 in the data set on HepG2 [3] came to 10.9 µM.
Take `Nc1ccn([C@H]2CC[C@@H](CO)O2)c(=O)n1` [ZALCITABINE]: the half-maximal effective concentration (EC50) in the data set with HepG2 [6] worked out at 3.2 µM; in the data set with HepG2 [1] it was 1.5 µM. The concentration for an effect of 90% (EC90) in the data set on HepG2 [7] was 10 µM; in the data set on HepG2 [3], 6.9 µM. In data set [8], the SI came to 23. The compound further registered a cytotoxic concentration (CC50) in data set [2] of 233 µM.
